What was measured:
Settings in all cases: synthetic library passage 3, intravenous, relative to wild-type AAV9
[1] = system: brain, spinal cord, and DRG of the NHPs; experiment: NGS fold enrichment of synthetic library (passage 3) in NHPs, first cross-species screen; assay type: in vivo, cynomolgus macaques (Macaca fascicularis)
Procedure: (§1) After creation of the synthetic library with the sub-selected variants, the synthetic library was screened (passage 3) in two NHPs (2-4 years of age) and two strains of mice, BALB/c (n=3, 6-8 weeks of age) and C57Bl/6 mice (n=3, 6-8 weeks of age), in a first cross-species evolution screen. The animals were injected intravenously with the synthetic library. After a period in vivo, (e.g., 28-days) RNA was extracted from nervous tissue, e.g., brain, spinal cord, and DRG of the NHPs and the brains of mice. Following RNA recovery and RT-PCR amplification, a systematic NGS enrichment analysis was performed, and the peptides comprised within the variants were identified and the capsid enrichment ratio for each variant compared to the wild-type AAV9 control was calculated (fold enrichment relative to wild-type AAV9) (Table 9). […] All animals were dosed intravenously at […] across the screen.

[2] = system: brain; experiment: NGS fold enrichment of synthetic library (passage 3) in BALB/c mice, first cross-species screen; assay type: in vivo
Procedure: as §1

[3] = system: brain; experiment: NGS fold enrichment of synthetic library (passage 3) in C57Bl/6 mice, first cross-species screen; assay type: in vivo
Procedure: as §1

[4] = RNA from spinal cord of NHPs, NGS
[5] = RNA from brain of BALB/c mice, NGS
[6] = RNA from brain of C57Bl/6 mice, NGS

Sequence	Fold enrichment over AAV9 in the brain of NHPs ([1]; RNA from brain of NHPs, NGS)	Fold enrichment over AAV9 in the spinal cord of NHPs [1, 4]	Fold enrichment over AAV9 in the brain of Mice (BALB/c) [2, 5]	Fold enrichment over AAV9 in the brain of Mice (C57Bl/6) [3, 6]	Fold enrichment over AAV9 in the brain of NHPs ([1]; RNA NGS, brain of NHPs)	Fold enrichment over AAV9 in the spinal cord of NHPs ([1]; RNA NGS, spinal cord of NHPs)	Fold enrichment over AAV9 in the brain of Mice (BALB/c) ([2]; RNA NGS, brain of BALB/c mice)	Fold enrichment over AAV9 in the brain of Mice (C57Bl/6) ([3]; RNA NGS, brain of C57Bl/6 mice)
GSGQRGSLTENQQT	1.337 fold	2.482 fold	0.567 fold	0.300 fold	–	–	–	–
GSRTTQDIGQNQQT	1.247 fold	0.000 fold	0.280 fold	0.685 fold	–	–	–	–
GSLDLGRSGQNQQT	1.160 fold	3.283 fold	0.505 fold	1.002 fold	–	–	–	–
GSGHLFQSGQNQQT	–	–	–	–	1.057 fold	0.615 fold	0.386 fold	0.751 fold
GSGQLRSLSTNQQT	–	–	–	–	1.622 fold	6.855 fold	0.382 fold	1.310 fold
GVHDMRVSGQNQQT	–	–	–	–	1.032 fold	8.083 fold	0.818 fold	1.171 fold
GSSQSTGYQPNQQT	–	–	–	–	1.847 fold	3.388 fold	0.577 fold	0.522 fold
GSGQREPKASNQQT	1.214 fold	2.793 fold	0.520 fold	0.399 fold	–	–	–	–
GSGQNQQSHGRIGT	1.173 fold	5.117 fold	0.455 fold	0.607 fold	–	–	–	–
GSITLIPSGQNQQT	–	–	–	–	3.361 fold	3.917 fold	0.435 fold	0.326 fold
GSLYGQSLGQNQQT	1.348 fold	11.248 fold	0.843 fold	0.894 fold	–	–	–	–
GSGQNQQASGRQQT	–	–	–	–	1.458 fold	3.179 fold	0.991 fold	0.943 fold
GHLTMHNSGQNHQT	–	–	–	–	1.938 fold	1.798 fold	0.586 fold	1.030 fold
GSGQNQQTALGVKC	–	–	–	–	1.835 fold	1.343 fold	1.014 fold	1.378 fold
GSGQNERHLVLQQT	–	–	–	–	1.019 fold	5.354 fold	0.150 fold	0.416 fold
GSGLSHATQQNQQT	–	–	–	–	2.640 fold	7.819 fold	0.638 fold	1.111 fold
GVGVITSSGQNQQT	1.348 fold	0.918 fold	0.777 fold	1.296 fold	–	–	–	–
GSPLQDRVGQNQQT	–	–	–	–	1.548 fold	0.753 fold	0.391 fold	0.469 fold
GSGDRYQTLQNQQT	–	–	–	–	1.897 fold	1.075 fold	0.318 fold	0.645 fold
GSGQNQQSHLRTNT	1.251 fold	4.583 fold	0.718 fold	1.022 fold	–	–	–	–
GSGYKAARPQNQQT	–	–	–	–	1.803 fold	0.000 fold	0.337 fold	1.418 fold
GSGQNQQSTGTSRT	–	–	–	–	1.103 fold	4.054 fold	0.935 fold	1.209 fold
GSGQPRSTGINQQT	–	–	–	–	1.061 fold	0.693 fold	0.542 fold	0.650 fold
GSGISSRNMQNQQT	1.291 fold	6.328 fold	0.560 fold	1.671 fold	–	–	–	–
GSGEAARYEQNQQT	–	–	–	–	1.020 fold	0.000 fold	0.125 fold	0.107 fold
GSGQLSHQSVNQQT	–	–	–	–	1.898 fold	4.032 fold	0.695 fold	0.720 fold
